Measured values taken from article PMC5832771, “Recognition motif and mechanism of ripening inhibitory peptides in plant hormone receptor ETR1” (Scientific Reports, 2018).
One block for each molecule: values may come before it. Residues, ends and D or L forms follow the SMILES beside them. No end group written: not given here.

Legend:
[1] = biological target: T1, AtETR1^1–307 (TM–GAF) (Arabidopsis thaliana, UniProt P49333); test: biochemical; assay type: binding
T1 construct: made in house; host or cells: E. coli C43 (DE3)

[2] = biological target: T2, AtETR1^1–307 (TM–GAF) (Arabidopsis thaliana, UniProt P49333 1-307, Alexa Fluor 488 C5 maleimide (thiol-reactive) label); test: MST; Alexa Fluor 488-labelled AtETR1 construct at 25 nM, peptide titrated; 50 mM Tris/HCl pH 8.0, 300 mM NaCl, 0.15 g/L fos-choline-16; 23-25 °C; temperature jump evaluated, one-binding-site model; details: both partners purified
T2 construct: pTEV-16b: N-terminal His10, linker SSGH, TEV site ENLYFQG; no cleavage described; source: E. coli C43 (DE3), purified (membranes solubilised in fos-choline-16, Ni-NTA HisTrap)
T2 sequence (looked up): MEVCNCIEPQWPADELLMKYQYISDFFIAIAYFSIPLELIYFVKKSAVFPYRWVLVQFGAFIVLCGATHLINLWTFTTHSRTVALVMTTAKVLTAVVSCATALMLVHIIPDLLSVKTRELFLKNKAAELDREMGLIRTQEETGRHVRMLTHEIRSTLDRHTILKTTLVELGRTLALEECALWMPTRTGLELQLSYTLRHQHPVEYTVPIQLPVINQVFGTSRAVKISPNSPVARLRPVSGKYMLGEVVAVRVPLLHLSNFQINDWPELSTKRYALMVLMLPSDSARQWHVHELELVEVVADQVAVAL

Molecule: CC(C)C[C@H](NC(=O)[C@H](CCCNC(=N)N)NC(=O)[C@H](CCCNC(=N)N)NC(=O)[C@H](CCCCN)NC(=O)[C@H](Cc1ccc(O)cc1)NC(=O)[C@H](CCCNC(=N)N)NC(=O)[C@H](CCCCN)NC(=O)[C@H](CC(C)C)NC(=O)[C@@H](NC(=O)[C@H](CO)NC(=O)[C@H](C)NC(=O)[C@H](CC(C)C)NC(=O)[C@H](CC(N)=O)NC(=O)[C@H](CCC(=O)O)NC(=O)[C@H](CCCCN)NC(=O)CNC(=O)[C@H](CCCCN)NC(=O)[C@@H]1CCCN1C(=O)[C@H](Cc1ccccc1)NC(=O)[C@H](C)N)C(C)C)C(N)=O [NIP-1] (H-AFPKGKENLASVLKRYKRRL-NH2)
- Kd [1]: 68 ± 15 nM

Molecule: KDVEMAISSRKGRTGTAAGDVAFPKGKENLASVLKRYKRRL-NH2 [N41P]
- Kd [1]: 30 ± 10 nM

Molecule: CC(C)C[C@H](NC(=O)[C@H](CCCNC(=N)N)NC(=O)[C@H](CCCNC(=N)N)NC(=O)[C@H](CCCCN)NC(=O)[C@H](Cc1ccc(O)cc1)NC(=O)[C@H](CCCNC(=N)N)NC(=O)[C@H](CCCCN)NC(=O)[C@H](CC(C)C)NC(=O)[C@@H](NC(=O)[C@H](CO)NC(=O)[C@H](C)NC(=O)[C@H](CC(C)C)NC(=O)[C@H](CC(N)=O)NC(=O)[C@H](CCC(=O)O)NC(=O)[C@H](CCCCN)NC(=O)CNC(=O)[C@H](CCCCN)NC(=O)[C@@H]1CCCN1C(=O)[C@H](Cc1ccccc1)NC(=O)[C@H](C)NC(=O)[C@@H](NC(=O)[C@H](CC(=O)O)NC(=O)CNC(=O)[C@H](C)NC(=O)[C@H](C)NC(=O)[C@@H](NC(=O)CNC(=O)[C@@H](NC(=O)[C@H](CCCNC(=N)N)NC(=O)CN)[C@@H](C)O)[C@@H](C)O)C(C)C)C(C)C)C(N)=O [N30P] (H-GRTGTAAGDVAFPKGKENLASVLKRYKRRL-NH2)
- Kd [1]: 57 ± 19 nM

- binding result [2]: binds
B1: extended peptide NIP-1 (peptide)
peptide: AFPKGKENLASVLKRYKRRL-NH2
notes: source: synthetic peptide, bought: GenScript (TFA salt, >98% HPLC purity)

- binding result [2]: binds
B2: extended peptide N41P (peptide)
peptide: KDVEMAISSRKGRTGTAAGDVAFPKGKENLASVLKRYKRRL-NH2
notes: as for B1

- binding result [2]: binds
B3: extended peptide N30P (peptide)
peptide: GRTGTAAGDVAFPKGKENLASVLKRYKRRL-NH2
notes: as for B1
